Measurements reported in PubChem BioAssay (NCI).
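48-hour exposure; five concentrations; linearly interpolated endpoints. GI50 is the concentration that inhibits growth by half. TGI: concentration producing complete growth inhibition.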

Columns and labels:
Assay in all cases: inhibition of tumour cell growth, NCI panel, 48 h
SN12C renal = system: SN12C renal
SK-OV-3 ovarian = system: SK-OV-3 ovarian
SF-295 CNS = system: SF-295 CNS
TK-10 renal = system: TK-10 renal
NCI-H23 lung = system: NCI-H23 lung
CAKI-1 renal = system: CAKI-1 renal
MDA-MB-231 breast = system: MDA-MB-231 breast
PC-3 prostate = system: PC-3 prostate
HT29 colon = system: HT29 colon
MCF7 breast = system: MCF7 breast
SW-620 colon = system: SW-620 colon
UO-31 renal = system: UO-31 renal
786-0 renal = system: 786-0 renal
DU-145 prostate = system: DU-145 prostate
MOLT-4 leukemia = system: MOLT-4 leukemia
NCI-H460 lung = system: NCI-H460 lung
OVCAR-4 ovarian = system: OVCAR-4 ovarian
A549 NSCLC = system: A549 NSCLC
MALME-3M melanoma = system: MALME-3M melanoma
SF-539 CNS = system: SF-539 CNS
NCI/ADR-RES ovarian = system: NCI/ADR-RES ovarian
OVCAR-3 ovarian = system: OVCAR-3 ovarian
IGROV1 ovarian = system: IGROV1 ovarian
HOP-92 NSCLC = system: HOP-92 NSCLC
EKVX NSCLC = system: EKVX NSCLC
M14 melanoma = system: M14 melanoma
HCT-15 colon = system: HCT-15 colon
SF-268 CNS = system: SF-268 CNS
SR leukemia = system: SR leukemia
HCT-116 colon = system: HCT-116 colon
HL-60(TB) leukemia = system: HL-60(TB) leukemia
SK-MEL-5 melanoma = system: SK-MEL-5 melanoma
K-562 leukemia = system: K-562 leukemia
UACC-257 melanoma = system: UACC-257 melanoma
NCI-H226 lung = system: NCI-H226 lung
SNB-75 CNS = system: SNB-75 CNS
COLO 205 colon = system: COLO 205 colon
SK-MEL-28 melanoma = system: SK-MEL-28 melanoma
BT-549 breast = system: BT-549 breast
OVCAR-5 ovarian = system: OVCAR-5 ovarian
CCRF-CEM leukemia = system: CCRF-CEM leukemia
A498 renal = system: A498 renal
KM12 colon = system: KM12 colon
SNB-19 CNS = system: SNB-19 CNS
HOP-62 NSCLC = system: HOP-62 NSCLC
LOX IMVI melanoma = system: LOX IMVI melanoma
ACHN renal = system: ACHN renal
NCI-H522 lung = system: NCI-H522 lung
T-47D breast = system: T-47D breast
UACC-62 melanoma = system: UACC-62 melanoma
U251 CNS = system: U251 CNS
MDA-MB-435 = system: MDA-MB-435
SK-MEL-2 melanoma = system: SK-MEL-2 melanoma
RPMI-8226 leukemia = system: RPMI-8226 leukemia

For `CNCCCNc1c2cc(OC)ccc2nc2cccc([N+](=O)[O-])c12`, the GI50 (SN12C renal) was 86.4 nM, the TGI (SN12C renal) was 16500 nM and the GI50 (SK-OV-3 ovarian) was 65 nM. The TGI (SK-OV-3 ovarian) was 670 nM, the GI50 (SF-295 CNS) was 40.7 nM and the TGI (SF-295 CNS) was 258 nM. The TGI (TK-10 renal) was 378 nM, the GI50 (NCI-H23 lung) was 26.9 nM and the TGI (NCI-H23 lung) was 220 nM. For the same compound, the GI50 (CAKI-1 renal) was 30.6 nM, the TGI (CAKI-1 renal) was 128 nM and the GI50 (MDA-MB-231 breast) was 69.4 nM. The TGI (MDA-MB-231 breast) was 672 nM, the TGI (PC-3 prostate) was 277 nM and the GI50 (HT29 colon) was 22.3 nM. It also gave a TGI (HT29 colon) of 80.6 nM, a GI50 (MCF7 breast) of 23.4 nM and a TGI (MCF7 breast) of 101 nM. It also gave a GI50 (SW-620 colon) of 36.9 nM, a TGI (SW-620 colon) of 517 nM and a GI50 (UO-31 renal) of 85.5 nM. It also gave a TGI (UO-31 renal) of 275 nM, a GI50 (786-0 renal) of 34.3 nM and a TGI (786-0 renal) of 306 nM. For the same compound, the GI50 (DU-145 prostate) was 45.4 nM, the TGI (DU-145 prostate) was 14800 nM and the TGI (MOLT-4 leukemia) was 48.2 nM. The GI50 (NCI-H460 lung) was 25 nM, the TGI (NCI-H460 lung) was 103 nM and the GI50 (OVCAR-4 ovarian) was 16.6 nM. It also gave a TGI (OVCAR-4 ovarian) of 52.8 nM, a GI50 (A549 NSCLC) of 32 nM and a TGI (A549 NSCLC) of 247 nM. The GI50 (MALME-3M melanoma) was 110 nM, the TGI (MALME-3M melanoma) was 315 nM and the GI50 (SF-539 CNS) was 132 nM. It also gave a TGI (SF-539 CNS) of 366 nM, a GI50 (NCI/ADR-RES ovarian) of 444 nM and a TGI (NCI/ADR-RES ovarian) of 3470 nM. For the same compound, the GI50 (OVCAR-3 ovarian) was 234 nM, the TGI (OVCAR-3 ovarian) was 818 nM and the GI50 (IGROV1 ovarian) was 33.8 nM. For the same compound, the TGI (IGROV1 ovarian) was 195 nM, the GI50 (HOP-92 NSCLC) was 23.2 nM and the TGI (HOP-92 NSCLC) was 137 nM. It also gave a GI50 (EKVX NSCLC) of 274 nM, a TGI (EKVX NSCLC) of 1150 nM and a GI50 (M14 melanoma) of 21.1 nM. For the same compound, the TGI (M14 melanoma) was 47.6 nM, the GI50 (HCT-15 colon) was 28.5 nM and the GI50 (SF-268 CNS) was 56.5 nM. It also gave a TGI (SF-268 CNS) of 376 nM, a GI50 (SR leukemia) of 25.3 nM and a GI50 (HCT-116 colon) of 25.5 nM. The TGI (HCT-116 colon) was 150 nM, the GI50 (HL-60(TB) leukemia) was 16.2 nM and the GI50 (SK-MEL-5 melanoma) was 19 nM. For the same compound, the TGI (SK-MEL-5 melanoma) was 37.5 nM, the GI50 (K-562 leukemia) was 15.3 nM and the TGI (K-562 leukemia) was 44.9 nM. The GI50 (UACC-257 melanoma) was 173 nM, the TGI (UACC-257 melanoma) was 397 nM and the GI50 (NCI-H226 lung) was 128 nM. The TGI (NCI-H226 lung) was 385 nM, the GI50 (SNB-75 CNS) was 61.1 nM and the TGI (SNB-75 CNS) was 224 nM. It also gave a GI50 (COLO 205 colon) of 41.8 nM, a TGI (COLO 205 colon) of 237 nM and a GI50 (SK-MEL-28 melanoma) of 150 nM. For the same compound, the TGI (SK-MEL-28 melanoma) was 650 nM, the GI50 (BT-549 breast) was 186 nM and the TGI (BT-549 breast) was 406 nM. The GI50 (OVCAR-5 ovarian) was 24.6 nM, the TGI (OVCAR-5 ovarian) was 99.3 nM and the GI50 (CCRF-CEM leukemia) was 17.3 nM. For the same compound, the TGI (CCRF-CEM leukemia) was 173 nM, the GI50 (A498 renal) was 63.7 nM and the TGI (A498 renal) was 271 nM. The GI50 (KM12 colon) was 43.1 nM, the TGI (KM12 colon) was 251 nM and the GI50 (SNB-19 CNS) was 123 nM. It also gave a TGI (SNB-19 CNS) of 519 nM, a GI50 (HOP-62 NSCLC) of 28.4 nM and a TGI (HOP-62 NSCLC) of 81 nM. It also gave a GI50 (LOX IMVI melanoma) of 64.1 nM and a TGI (LOX IMVI melanoma) of 354 nM.
For `CCCCCCCCCCCCC/C=C/[C@H]1[C@@H](C(=O)OC)N1S(=O)c1ccc(C)cc1` (stereo not given in full), the TGI (TK-10 renal) was > 100000 nM, the TGI (NCI-H23 lung) was > 100000 nM and the TGI (PC-3 prostate) was > 100000 nM. For the same compound, the TGI (SW-620 colon) was > 100000 nM, the TGI (ACHN renal) was > 100000 nM and the TGI (UO-31 renal) was > 100000 nM. For the same compound, the TGI (786-0 renal) was > 100000 nM, the TGI (DU-145 prostate) was > 100000 nM and the TGI (MOLT-4 leukemia) was > 100000 nM. For the same compound, the TGI (MALME-3M melanoma) was > 100000 nM, the TGI (NCI-H522 lung) was > 100000 nM and the TGI (T-47D breast) was > 100000 nM. The TGI (OVCAR-3 ovarian) was > 100000 nM, the TGI (IGROV1 ovarian) was > 100000 nM and the TGI (HOP-92 NSCLC) was > 100000 nM. For the same compound, the TGI (EKVX NSCLC) was > 100000 nM, the TGI (SR leukemia) was > 100000 nM and the TGI (HCT-116 colon) was > 100000 nM. The TGI (HL-60(TB) leukemia) was 81300 nM, the TGI (UACC-62 melanoma) was > 100000 nM and the TGI (SK-MEL-5 melanoma) was > 100000 nM. For the same compound, the TGI (K-562 leukemia) was > 100000 nM, the TGI (UACC-257 melanoma) was > 100000 nM and the TGI (COLO 205 colon) was > 100000 nM. For the same compound, the TGI (SK-MEL-28 melanoma) was > 100000 nM, the TGI (BT-549 breast) was > 100000 nM and the TGI (CCRF-CEM leukemia) was > 100000 nM. The TGI (A498 renal) was > 100000 nM, the TGI (U251 CNS) was > 100000 nM and the TGI (HOP-62 NSCLC) was > 100000 nM. For the same compound, the TGI (MDA-MB-435) was > 100000 nM, the TGI (SK-MEL-2 melanoma) was > 100000 nM and the TGI (LOX IMVI melanoma) was > 100000 nM. The TGI (RPMI-8226 leukemia) was > 100000 nM.
